The source of these data is patent US7452887B2, “Quinoline- and isoquinoline-based compounds exhibiting ATP-utilizing enzyme inhibitory activity, and compositions, and uses thereof” (Amphora Discovery Corporation, priority 2004, dated 2008).

Holding throughout (assay): HTS ATP-utilizing enzyme assay, off-chip mobility-shift (Caliper HTS 250)
Type in all cases: biochemical
Common to all, as to settings: test compound 10 μM, kinase listed = active (greater than six-sigma from the mean activity of inactive compounds)

One assay addresses MAPKAPK2 (Homo sapiens, UniProt P49137). The essentials:
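Phosphorylation of a peptide substrate was quantified by Caliper mobility-shift separation of substrate and product after 2.5 h at 20-22 °C, with compounds tested at 10 μM. Inhibition was normalized to EDTA-quenched (100%) and DMSO (0%) controls; six-sigma thresholds flagged actives.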

Another assay deals with PDGFR-α (Homo sapiens, UniProt P16234). The method, boiled down:
(§1)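 Single-point screen, 10 μM compound; kinase + peptide substrate, HEPES pH 7.5/Triton X-100/BSA; 2.5 hrs, 20–22° C.; EDTA stop. Readout: substrate vs phosphoproduct ratio by off-chip mobility shift. Hits called at six-sigma limits.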

In a further assay the target is T1, FLT-3 (Homo sapiens, UniProt P36888).
T1 sequence (P36888 27-993): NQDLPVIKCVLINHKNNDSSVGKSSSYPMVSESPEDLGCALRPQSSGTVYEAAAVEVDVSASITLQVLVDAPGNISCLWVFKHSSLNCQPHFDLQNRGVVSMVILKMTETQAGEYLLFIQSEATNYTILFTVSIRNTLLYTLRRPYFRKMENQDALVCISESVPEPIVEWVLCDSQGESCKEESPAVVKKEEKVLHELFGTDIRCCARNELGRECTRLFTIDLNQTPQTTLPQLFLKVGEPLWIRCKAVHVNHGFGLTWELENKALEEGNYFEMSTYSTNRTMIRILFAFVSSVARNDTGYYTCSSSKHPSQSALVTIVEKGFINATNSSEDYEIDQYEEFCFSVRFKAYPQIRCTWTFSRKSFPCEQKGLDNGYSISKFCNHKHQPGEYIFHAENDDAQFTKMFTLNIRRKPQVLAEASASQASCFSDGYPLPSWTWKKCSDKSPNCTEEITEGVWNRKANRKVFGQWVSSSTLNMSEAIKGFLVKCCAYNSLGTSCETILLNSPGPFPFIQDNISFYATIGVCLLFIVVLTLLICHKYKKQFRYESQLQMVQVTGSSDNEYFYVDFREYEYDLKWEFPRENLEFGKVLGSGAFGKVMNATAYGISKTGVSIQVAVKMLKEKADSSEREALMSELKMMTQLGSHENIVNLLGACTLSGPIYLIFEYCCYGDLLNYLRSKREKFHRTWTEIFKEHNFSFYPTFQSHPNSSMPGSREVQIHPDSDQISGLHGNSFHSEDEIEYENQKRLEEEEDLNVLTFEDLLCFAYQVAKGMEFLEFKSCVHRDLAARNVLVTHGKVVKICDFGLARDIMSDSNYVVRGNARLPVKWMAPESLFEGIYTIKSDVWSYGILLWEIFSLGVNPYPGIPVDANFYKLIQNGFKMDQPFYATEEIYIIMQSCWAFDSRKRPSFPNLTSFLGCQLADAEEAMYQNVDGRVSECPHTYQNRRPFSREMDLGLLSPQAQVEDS
The method, boiled down:
as §1

The target in a further assay is C-TAK1 (Homo sapiens, UniProt P27448). The method, boiled down:
as §1

In another assay the target is T2, CHEK1 (Homo sapiens, UniProt O14757).
T2 sequence (O14757 1-476): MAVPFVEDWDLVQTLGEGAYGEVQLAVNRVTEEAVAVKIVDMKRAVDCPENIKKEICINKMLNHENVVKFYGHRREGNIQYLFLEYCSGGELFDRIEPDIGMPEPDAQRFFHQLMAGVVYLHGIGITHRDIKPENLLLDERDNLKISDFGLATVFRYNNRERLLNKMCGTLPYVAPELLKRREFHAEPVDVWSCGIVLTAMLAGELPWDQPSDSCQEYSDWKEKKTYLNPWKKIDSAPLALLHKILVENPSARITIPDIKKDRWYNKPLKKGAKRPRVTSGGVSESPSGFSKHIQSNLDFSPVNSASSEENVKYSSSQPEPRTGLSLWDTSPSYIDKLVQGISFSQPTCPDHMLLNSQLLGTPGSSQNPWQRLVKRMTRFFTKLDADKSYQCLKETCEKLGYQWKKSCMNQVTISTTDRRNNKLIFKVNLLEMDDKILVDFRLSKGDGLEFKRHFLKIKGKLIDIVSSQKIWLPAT
The method, boiled down: as §1

The target of the next assay is LYNA (Homo sapiens, UniProt P07948). The essentials: as §1
Chain of LYNA (P07948 whole entry): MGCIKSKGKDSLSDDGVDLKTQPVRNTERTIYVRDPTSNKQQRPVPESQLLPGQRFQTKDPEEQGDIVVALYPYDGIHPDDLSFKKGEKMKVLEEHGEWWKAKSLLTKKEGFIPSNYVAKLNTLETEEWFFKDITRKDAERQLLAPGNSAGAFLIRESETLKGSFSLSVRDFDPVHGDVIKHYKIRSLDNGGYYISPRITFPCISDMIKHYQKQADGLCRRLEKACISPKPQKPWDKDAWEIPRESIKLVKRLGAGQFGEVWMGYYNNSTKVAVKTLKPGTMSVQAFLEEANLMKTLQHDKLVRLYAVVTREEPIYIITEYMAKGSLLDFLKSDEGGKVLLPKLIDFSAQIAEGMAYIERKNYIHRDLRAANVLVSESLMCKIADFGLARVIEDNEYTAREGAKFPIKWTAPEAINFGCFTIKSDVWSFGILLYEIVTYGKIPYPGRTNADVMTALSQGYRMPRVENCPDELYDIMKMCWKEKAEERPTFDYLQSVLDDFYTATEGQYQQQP
Another assay addresses T3, PRAK (Homo sapiens, UniProt Q8IW41).
T3 sequence (Q8IW41 1-473): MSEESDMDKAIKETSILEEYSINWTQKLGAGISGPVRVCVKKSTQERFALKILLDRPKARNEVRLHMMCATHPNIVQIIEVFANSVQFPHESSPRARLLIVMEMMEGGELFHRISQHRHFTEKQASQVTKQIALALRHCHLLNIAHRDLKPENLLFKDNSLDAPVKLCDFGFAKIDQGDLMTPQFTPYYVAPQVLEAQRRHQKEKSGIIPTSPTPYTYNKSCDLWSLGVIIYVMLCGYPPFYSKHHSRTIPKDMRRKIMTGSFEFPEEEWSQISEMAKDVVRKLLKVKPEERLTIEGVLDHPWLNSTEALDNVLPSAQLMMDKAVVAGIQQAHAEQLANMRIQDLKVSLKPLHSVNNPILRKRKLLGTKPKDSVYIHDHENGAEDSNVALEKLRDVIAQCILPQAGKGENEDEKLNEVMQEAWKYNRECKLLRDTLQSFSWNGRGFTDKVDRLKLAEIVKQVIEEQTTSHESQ
The method, boiled down:
as §1

The target in the next assay is T4, BMX (Homo sapiens, UniProt P51813).
T4 sequence (P51813 1-675): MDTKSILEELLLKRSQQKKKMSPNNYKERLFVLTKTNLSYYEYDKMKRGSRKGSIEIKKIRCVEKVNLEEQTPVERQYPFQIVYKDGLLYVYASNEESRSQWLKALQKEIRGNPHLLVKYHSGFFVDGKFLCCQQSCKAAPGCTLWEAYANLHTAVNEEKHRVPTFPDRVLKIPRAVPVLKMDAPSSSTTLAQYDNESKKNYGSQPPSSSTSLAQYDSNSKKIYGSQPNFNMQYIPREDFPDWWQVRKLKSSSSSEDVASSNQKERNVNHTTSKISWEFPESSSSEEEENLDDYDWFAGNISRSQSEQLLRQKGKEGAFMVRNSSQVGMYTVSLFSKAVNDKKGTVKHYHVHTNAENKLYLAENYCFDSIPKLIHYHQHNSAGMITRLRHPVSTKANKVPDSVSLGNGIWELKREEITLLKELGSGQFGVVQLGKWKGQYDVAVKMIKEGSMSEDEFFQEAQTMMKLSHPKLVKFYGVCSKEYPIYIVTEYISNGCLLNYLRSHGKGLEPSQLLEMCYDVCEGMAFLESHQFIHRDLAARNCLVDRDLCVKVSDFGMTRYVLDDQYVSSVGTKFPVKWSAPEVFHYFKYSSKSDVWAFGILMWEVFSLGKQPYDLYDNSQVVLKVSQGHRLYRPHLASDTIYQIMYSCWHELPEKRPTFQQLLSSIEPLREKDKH
The method, boiled down:
as §1

For a further assay, the target named is SRC (Homo sapiens, UniProt P12931). The method, boiled down: as §1
Chain of SRC (P12931 whole entry): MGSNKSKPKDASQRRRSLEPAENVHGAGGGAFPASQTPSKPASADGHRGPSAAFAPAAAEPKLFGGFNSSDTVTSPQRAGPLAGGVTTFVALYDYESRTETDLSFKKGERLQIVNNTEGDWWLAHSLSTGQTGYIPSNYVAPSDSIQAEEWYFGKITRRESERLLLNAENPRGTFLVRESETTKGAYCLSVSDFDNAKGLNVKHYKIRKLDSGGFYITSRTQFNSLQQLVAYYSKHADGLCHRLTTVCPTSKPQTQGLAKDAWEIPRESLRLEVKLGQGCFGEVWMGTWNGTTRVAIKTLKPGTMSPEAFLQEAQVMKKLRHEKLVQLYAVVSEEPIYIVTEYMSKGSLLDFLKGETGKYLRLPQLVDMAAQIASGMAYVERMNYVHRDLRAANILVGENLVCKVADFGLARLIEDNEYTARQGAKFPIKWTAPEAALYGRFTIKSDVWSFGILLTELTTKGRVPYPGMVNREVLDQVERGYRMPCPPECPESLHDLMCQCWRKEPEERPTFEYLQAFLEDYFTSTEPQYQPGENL
Another assay deals with T5, NEK2 (Homo sapiens, UniProt P51955).
T5 sequence (P51955 1-445): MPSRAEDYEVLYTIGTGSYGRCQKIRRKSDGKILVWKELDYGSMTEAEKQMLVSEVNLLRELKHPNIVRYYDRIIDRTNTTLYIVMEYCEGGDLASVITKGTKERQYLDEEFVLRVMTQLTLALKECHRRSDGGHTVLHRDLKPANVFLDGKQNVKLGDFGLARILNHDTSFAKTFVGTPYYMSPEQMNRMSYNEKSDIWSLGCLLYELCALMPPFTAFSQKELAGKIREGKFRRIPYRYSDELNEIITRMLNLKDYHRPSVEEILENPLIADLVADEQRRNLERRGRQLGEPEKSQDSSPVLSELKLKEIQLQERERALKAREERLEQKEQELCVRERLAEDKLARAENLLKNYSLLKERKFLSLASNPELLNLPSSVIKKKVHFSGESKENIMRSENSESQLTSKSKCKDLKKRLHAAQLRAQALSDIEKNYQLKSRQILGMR
The essentials: as §1

The target of the next assay is ABL1 (Homo sapiens, UniProt P00519). The essentials:
as §1

The next assay concerns the target GSK3-α (Homo sapiens, UniProt P49840). The essentials:
as §1

Chain of C-TAK1 (P27448 whole entry): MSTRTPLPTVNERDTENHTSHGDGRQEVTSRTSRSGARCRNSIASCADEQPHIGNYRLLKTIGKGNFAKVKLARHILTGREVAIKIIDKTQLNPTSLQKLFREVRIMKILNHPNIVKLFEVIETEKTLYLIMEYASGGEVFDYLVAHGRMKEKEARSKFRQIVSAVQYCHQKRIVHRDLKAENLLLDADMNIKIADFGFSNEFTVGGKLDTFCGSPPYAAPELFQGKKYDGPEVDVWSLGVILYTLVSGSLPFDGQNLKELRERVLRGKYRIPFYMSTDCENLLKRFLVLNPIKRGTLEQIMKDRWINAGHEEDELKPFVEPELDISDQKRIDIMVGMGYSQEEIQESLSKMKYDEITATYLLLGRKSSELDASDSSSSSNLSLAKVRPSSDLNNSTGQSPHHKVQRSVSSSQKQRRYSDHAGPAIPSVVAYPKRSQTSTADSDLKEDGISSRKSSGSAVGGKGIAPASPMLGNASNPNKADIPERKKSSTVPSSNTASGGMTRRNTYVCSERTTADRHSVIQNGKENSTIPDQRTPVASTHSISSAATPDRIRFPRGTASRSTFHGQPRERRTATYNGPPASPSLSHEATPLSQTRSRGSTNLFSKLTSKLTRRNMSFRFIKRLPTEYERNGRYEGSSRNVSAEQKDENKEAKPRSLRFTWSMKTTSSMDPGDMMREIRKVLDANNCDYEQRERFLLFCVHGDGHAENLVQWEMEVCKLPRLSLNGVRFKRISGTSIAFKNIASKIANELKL
Chain of MAPKAPK2 (P49137 whole entry): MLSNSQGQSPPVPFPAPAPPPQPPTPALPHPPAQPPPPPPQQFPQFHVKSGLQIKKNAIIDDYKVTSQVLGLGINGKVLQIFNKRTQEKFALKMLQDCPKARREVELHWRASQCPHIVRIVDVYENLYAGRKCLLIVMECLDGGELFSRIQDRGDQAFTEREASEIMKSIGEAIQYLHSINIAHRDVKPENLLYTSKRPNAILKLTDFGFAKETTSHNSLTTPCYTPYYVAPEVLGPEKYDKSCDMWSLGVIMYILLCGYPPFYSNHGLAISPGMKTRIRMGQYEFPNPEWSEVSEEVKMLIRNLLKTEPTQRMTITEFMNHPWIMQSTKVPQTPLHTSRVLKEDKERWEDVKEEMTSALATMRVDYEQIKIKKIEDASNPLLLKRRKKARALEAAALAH
Chain of PDGFR-α (P16234 24-1089): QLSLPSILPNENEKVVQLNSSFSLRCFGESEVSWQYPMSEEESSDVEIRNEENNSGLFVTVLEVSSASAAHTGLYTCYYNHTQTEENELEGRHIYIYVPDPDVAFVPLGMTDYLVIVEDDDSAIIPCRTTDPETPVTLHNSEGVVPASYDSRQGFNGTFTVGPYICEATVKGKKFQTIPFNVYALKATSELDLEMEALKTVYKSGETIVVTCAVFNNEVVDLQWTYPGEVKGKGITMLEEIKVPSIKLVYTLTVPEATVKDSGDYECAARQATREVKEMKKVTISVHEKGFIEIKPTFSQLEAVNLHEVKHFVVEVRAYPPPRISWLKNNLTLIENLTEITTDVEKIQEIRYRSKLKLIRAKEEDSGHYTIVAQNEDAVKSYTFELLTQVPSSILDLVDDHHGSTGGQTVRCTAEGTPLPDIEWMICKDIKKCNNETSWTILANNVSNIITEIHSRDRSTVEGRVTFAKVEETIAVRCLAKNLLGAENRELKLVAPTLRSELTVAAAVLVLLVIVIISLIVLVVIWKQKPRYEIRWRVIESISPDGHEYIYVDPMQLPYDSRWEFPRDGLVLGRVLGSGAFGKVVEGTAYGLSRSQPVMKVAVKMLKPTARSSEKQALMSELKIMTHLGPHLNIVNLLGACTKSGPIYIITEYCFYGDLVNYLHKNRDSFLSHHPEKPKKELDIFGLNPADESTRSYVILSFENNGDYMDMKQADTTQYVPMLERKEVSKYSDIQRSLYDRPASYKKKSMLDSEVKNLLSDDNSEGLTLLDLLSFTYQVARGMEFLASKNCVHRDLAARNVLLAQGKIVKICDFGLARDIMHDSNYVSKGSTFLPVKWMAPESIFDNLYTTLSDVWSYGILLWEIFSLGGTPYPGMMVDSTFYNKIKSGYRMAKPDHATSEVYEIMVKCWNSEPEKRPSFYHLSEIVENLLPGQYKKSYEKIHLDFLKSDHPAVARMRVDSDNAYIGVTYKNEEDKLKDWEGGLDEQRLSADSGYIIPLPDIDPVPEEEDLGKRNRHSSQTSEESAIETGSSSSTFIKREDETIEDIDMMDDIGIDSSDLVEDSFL
Chain of GSK3-α (P49840 whole entry): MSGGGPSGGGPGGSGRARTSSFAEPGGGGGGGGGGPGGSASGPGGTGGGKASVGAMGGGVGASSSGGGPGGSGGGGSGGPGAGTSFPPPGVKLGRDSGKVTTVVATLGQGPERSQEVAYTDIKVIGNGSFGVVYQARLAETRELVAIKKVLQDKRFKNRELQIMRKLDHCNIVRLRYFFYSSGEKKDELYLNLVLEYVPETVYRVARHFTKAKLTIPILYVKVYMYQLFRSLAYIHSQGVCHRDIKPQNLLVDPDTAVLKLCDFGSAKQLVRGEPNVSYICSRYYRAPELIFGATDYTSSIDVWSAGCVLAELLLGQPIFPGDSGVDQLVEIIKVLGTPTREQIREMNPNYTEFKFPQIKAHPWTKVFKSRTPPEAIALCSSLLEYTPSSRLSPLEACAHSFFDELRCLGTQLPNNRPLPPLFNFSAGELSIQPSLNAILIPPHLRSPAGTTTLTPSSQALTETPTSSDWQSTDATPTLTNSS
Chain of ABL1 (P00519 whole entry): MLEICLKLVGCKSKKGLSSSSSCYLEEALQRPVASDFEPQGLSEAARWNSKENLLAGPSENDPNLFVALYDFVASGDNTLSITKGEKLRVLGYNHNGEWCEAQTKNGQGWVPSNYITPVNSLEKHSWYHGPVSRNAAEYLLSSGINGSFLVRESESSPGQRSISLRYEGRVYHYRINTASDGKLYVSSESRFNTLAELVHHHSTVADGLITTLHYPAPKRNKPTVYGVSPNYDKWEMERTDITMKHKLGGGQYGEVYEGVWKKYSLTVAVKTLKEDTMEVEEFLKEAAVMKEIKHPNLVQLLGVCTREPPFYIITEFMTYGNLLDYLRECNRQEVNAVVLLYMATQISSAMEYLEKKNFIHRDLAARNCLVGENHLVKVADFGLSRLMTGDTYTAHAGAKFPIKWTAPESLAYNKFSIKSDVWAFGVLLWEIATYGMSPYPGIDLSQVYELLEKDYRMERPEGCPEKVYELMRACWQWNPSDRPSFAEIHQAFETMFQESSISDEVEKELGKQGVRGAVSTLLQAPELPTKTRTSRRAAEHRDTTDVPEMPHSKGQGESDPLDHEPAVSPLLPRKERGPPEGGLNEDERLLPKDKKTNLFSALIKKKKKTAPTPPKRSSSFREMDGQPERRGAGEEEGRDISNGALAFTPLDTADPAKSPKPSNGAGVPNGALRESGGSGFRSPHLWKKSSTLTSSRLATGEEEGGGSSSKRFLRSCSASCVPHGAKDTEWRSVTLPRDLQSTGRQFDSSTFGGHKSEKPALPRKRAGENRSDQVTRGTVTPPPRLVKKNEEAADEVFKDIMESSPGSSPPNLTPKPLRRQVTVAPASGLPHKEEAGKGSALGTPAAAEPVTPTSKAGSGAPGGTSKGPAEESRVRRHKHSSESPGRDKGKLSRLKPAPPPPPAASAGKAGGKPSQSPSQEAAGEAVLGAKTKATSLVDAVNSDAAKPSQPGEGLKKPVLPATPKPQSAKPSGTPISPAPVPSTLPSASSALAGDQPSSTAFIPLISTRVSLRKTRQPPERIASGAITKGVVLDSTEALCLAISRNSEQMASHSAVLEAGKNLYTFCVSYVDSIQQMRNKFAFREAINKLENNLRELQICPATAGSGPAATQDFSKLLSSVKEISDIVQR

Regarding `COc1ccc(-c2ccc3nccc(Nc4ccc(N5CCN(CC(=O)O)CC5)cc4)c3c2)cc1` [2-(4-(4-(6-(4-methoxyphenyl)quinolin-4-ylamino)phenyl)piperazin-1-yl)acetic acid], the Activity entry is listed as “MAPKAPK2” on MAPKAPK2 and “PDGFR-α” at PDGFR-α.

In the case of `O=C(O)CN1CCN(c2ccc(Nc3ccnc4ccc(-c5ccccc5)cc34)cc2)CC1` [2-(4-(4-(6-phenylquinolin-4-ylamino)phenyl)piperazin-1-yl)acetic acid], the Activity result at MAPKAPK2 is recorded as “MAPKAPK2”; at FLT-3 it was “FLT-3”; on PDGFR-α, “PDGFR-α”.

Regarding `CN(C)CCN1CCN(c2ccc(Nc3ccnc4ccc(-c5ccc(C#N)cc5)cc34)cc2)CC1` [4-(4-(4-(4-(2-(dimethylamino)ethyl)piperazin-1-yl)phenylamino)quinolin-6-yl)benzonitrile], the Activity entry at MAPKAPK2 was “MAPKAPK2”; on C-TAK1 it was “C-TAK1”; at CHEK1, “CHEK1”.

Take `CN1CCN(c2ccc(Nc3ccnc4ccc(-c5cccc(Cl)c5Cl)cc34)cc2)CC1` [6-(2,3-dichlorophenyl)-N-(4-(4-methylpiperazin-1-yl)phenyl)quinolin-4-amine]: the Activity result on MAPKAPK2 is listed as “MAPKAPK2”; at C-TAK1, “C-TAK1”; at LYNA it was “LYNA”; at PRAK, “PRAK”.

For `CN1CCN(c2ccc(Nc3ccnc4ccc(-c5ccc(OCc6ccccc6)cc5)cc34)cc2)CC1` [6-(4-(benzyloxy)phenyl)-N-(4-(4-methylpiperazin-1-yl)phenyl)quinolin-4-amine], the values for the Activity entry at BMX, at C-TAK1 and at SRC were “BMX”, “C-TAK1” and “SRC”, respectively.

As to `CN1CCN(c2ccc(Nc3ccnc4ccc(-c5ccc(C(C)(C)C)cc5)cc34)cc2)CC1` [6-(4-tert-butylphenyl)-N-(4-(4-methylpiperazin-1-yl)phenyl)quinolin-4-amine], the Activity result is “MAPKAPK2” on MAPKAPK2; “C-TAK1” on C-TAK1; “CHEK1” at CHEK1; “NEK2” on NEK2; “PRAK” on PRAK.

For the compound `CN1CCN(c2ccc(Nc3ccnc4ccc(-c5cc6ccccc6s5)cc34)cc2)CC1` [6-(benzo[b]thiophen-2-yl)-N-(4-(4-methylpiperazin-1-yl)phenyl)quinolin-4-amine], the Activity entry is reported as “MAPKAPK2” at MAPKAPK2, “C-TAK1” at C-TAK1 and “SRC” on SRC.

With `CN1CCN(c2ccc(Nc3ccnc4ccc(-c5csc6ccccc56)cc34)cc2)CC1` [6-(benzo[b]thiophen-3-yl)-N-(4-(4-methylpiperazin-1-yl)phenyl)quinolin-4-amine], the Activity entry on MAPKAPK2 is recorded as “MAPKAPK2”; on ABL1 it was “ABL1”; on PRAK it was “PRAK”.

In the case of `CC(=O)Nc1cccc(-c2ccc3nccc(Nc4ccc(N5CCN(C)CC5)cc4)c3c2)c1` [N-(3-(4-(4-(4-methylpiperazin-1-yl)phenylamino)quinolin-6-yl)phenyl)acetamide], the Activity result on MAPKAPK2 is reported as “MAPKAPK2”; at GSK3-α, “GSK3-α”; at PRAK it was “PRAK”.

For `CN1CCN(c2ccc(Nc3ccnc4ccc(-c5cc(F)c(F)c(F)c5)cc34)cc2)CC1` [N-(4-(4-methylpiperazin-1-yl)phenyl)-6-(3,4,5-trifluorophenyl)quinolin-4-amine], the Activity result is on record as “MAPKAPK2” on MAPKAPK2, “CHEK1” at CHEK1, “NEK2” at NEK2 and “PRAK” at PRAK.

Consider `CN1CCN(c2ccc(Nc3ccnc4ccc(-c5ccc(C(F)(F)F)cc5)cc34)cc2)CC1` [N-(4-(4-methylpiperazin-1-yl)phenyl)-6-(4-(trifluoromethyl)phenyl)quinolin-4-amine], for which the Activity entry on C-TAK1 is reported as “C-TAK1”; on CHEK1 it was “CHEK1”; on NEK2 it was “NEK2”; on PRAK, “PRAK”.
